Measurements reported in patent US20070116781A1, “Hydrogen Cyanamide Pesticide Formulations” (priority 2005, published 2007).

What was measured:
combined weed species = assay: Herbicidal activity, cyanamide and citric acid, pre-emergence, covered pots; format: in vivo
Protocol: (§1) The weeds used in these tests were grown from a standard weed seed pack of common annual and perennial weeds representing an extreme weed situation. The weeds included crabgrass (Digitaria sanguinalis), yellow nutsedge (Cyperus esculentus), […] (Ipomoea spp.), pigweed (Amaranthus spp.), and other annual weeds. Observations of the effects on the weed population as a whole were made, and individual observations were made for crabgrass, yellow nutsedge, sicklepod, morningglory, and pigweed. Stock solutions of hydrogen cyanamide at 1.25% by weight and citric acid at 5.0% by weight, both in water, were prepared, the hydrogen cyanamide from a phosphate-buffered 50% aqueous solution. […] Data analyses were performed in the same manner as Example 1. The results expressed in weeds per pot are listed in Table XIV for all weeds, Table XV for crabgrass, Table XVI for yellow nutsedge, Table XVII for sicklepod, Table XVIII for morningglory, and Table XIX for pigweed, all at various application rates for hydrogen cyanamide, with and without citric acid.

sicklepod [1] = assay: Herbicidal activity, cyanamide and propionic acid, pre-emergence, covered pots; format: in vivo, Senna obtusifolia
Protocol: (§2) The weeds used in these tests were grown from a standard weed seed pack of common annual and perennial weeds representing an extreme weed situation. The weeds included yellow nutsedge (Cyperus esculentus), crabgrass (Digitaria sanguinalis), pigweed (Amaranthus spp.), momingglory (Ipomoea spp.), sicklepod (Senna obtusifolia) and other annual weeds. Observations of the effects on the weed population as a whole were made, and individual observations were made for yellow nutsedge, crabgrass, and sicklepod. Stock solutions of hydrogen cyanamide at 1.25% by weight and propionic acid at 5.0% by weight, both in water, were prepared, the hydrogen cyanamide from a phosphate-buffered 50% aqueous solution. […] Data analyses were performed in the same manner as Example 1. The results expressed in weeds per pot are listed in Table V for all weeds, Table VI for yellow nutsedge, Table VII for crabgrass, and Table VIII for sicklepod, all at various application rates for both hydrogen cyanamide and propionic acid.

crabgrass = assay: Herbicidal activity, cyanamide and citric acid, pre-emergence, covered pots; format: in vivo, Digitaria sanguinalis
Protocol: as §1

sicklepod [2] = assay: as above; format: in vivo, Senna obtusifolia
Protocol: as §1

yellow nutsedge [3] = assay: as above; format: in vivo, Cyperus esculentus
Protocol: as §1

all weeds = assay: Herbicidal activity, cyanamide and propionic acid, pre-emergence, covered pots; format: in vivo
Protocol: as §2

yellow nutsedge [4] = assay: as above; format: in vivo, Cyperus esculentus
Protocol: as §2

[5] = 9 d after treatment, cyanamide 50 mg/kg soil
[6] = 9 d after treatment, cyanamide 100 mg/kg soil
[7] = 9 d after treatment, cyanamide 150 mg/kg soil
[8] = 9 d after treatment, cyanamide 200 mg/kg soil
[9] = 9 d after treatment, cyanamide 250 mg/kg soil
[10] = 13 d after treatment, cyanamide 50 mg/kg soil
[11] = 13 d after treatment, cyanamide 100 mg/kg soil
[12] = 13 d after treatment, cyanamide 150 mg/kg soil
[13] = 13 d after treatment, cyanamide 200 mg/kg soil
[14] = 13 d after treatment, cyanamide 250 mg/kg soil
[15] = 19 d after treatment, cyanamide 50 mg/kg soil
[16] = 19 d after treatment, cyanamide 100 mg/kg soil
[17] = 19 d after treatment, cyanamide 150 mg/kg soil
[18] = 19 d after treatment, cyanamide 200 mg/kg soil
[19] = 19 d after treatment, cyanamide 250 mg/kg soil
[20] = 26 d after treatment, cyanamide 50 mg/kg soil
[21] = 26 d after treatment, cyanamide 100 mg/kg soil
[22] = 26 d after treatment, cyanamide 150 mg/kg soil
[23] = 26 d after treatment, cyanamide 200 mg/kg soil
[24] = 26 d after treatment, cyanamide 250 mg/kg soil
[25] = 8 d after treatment, cyanamide 75 mg/kg soil
[26] = 8 d after treatment, cyanamide 150 mg/kg soil
[27] = 14 d after treatment, cyanamide 75 mg/kg soil
[28] = 14 d after treatment, cyanamide 150 mg/kg soil
[29] = 20 d after treatment, cyanamide 75 mg/kg soil
[30] = 20 d after treatment, cyanamide 150 mg/kg soil
[31] = 27 d after treatment, cyanamide 75 mg/kg soil
[32] = 27 d after treatment, cyanamide 150 mg/kg soil

## N#CN [Cyanamide, hydrogen cyanamide]
Combined weed species; [5]
  Weeds Per Pot (combined weed species): 15.0
Combined weed species; [6]
  Weeds Per Pot (combined weed species): 1.6
Combined weed species; [7]
  Weeds Per Pot (combined weed species): 0.2
Combined weed species; [8]
  Weeds Per Pot (combined weed species): 0
Combined weed species; [9]
  Weeds Per Pot (combined weed species): 0
Combined weed species; [10]
  Weeds Per Pot (combined weed species): 14.4
Combined weed species; [11]
  Weeds Per Pot (combined weed species): 14.0
Combined weed species; [12]
  Weeds Per Pot (combined weed species): 0.9
Combined weed species; [13]
  Weeds Per Pot (combined weed species): 0
Combined weed species; [14]
  Weeds Per Pot (combined weed species): 0
Combined weed species; [15]
  Weeds Per Pot (combined weed species): 11.2
Combined weed species; [16]
  Weeds Per Pot (combined weed species): 4.8
Combined weed species; [17]
  Weeds Per Pot (combined weed species): 1.6
Combined weed species; [18]
  Weeds Per Pot (combined weed species): 0.3
Combined weed species; [19]
  Weeds Per Pot (combined weed species): 0
Combined weed species; [20]
  Weeds Per Pot (combined weed species): 21.5
Combined weed species; [21]
  Weeds Per Pot (combined weed species): 10.0
Combined weed species; [22]
  Weeds Per Pot (combined weed species): 3.0
Combined weed species; [23]
  Weeds Per Pot (combined weed species): 0.8
Combined weed species; [24]
  Weeds Per Pot (combined weed species): 0.8
Sicklepod [1]; [25]
  Weeds Per Pot: Sicklepod: 1
Sicklepod [1]; [26]
  Weeds Per Pot: Sicklepod: 0.4
Sicklepod [1]; [27]
  Weeds Per Pot: Sicklepod: 1.9
Sicklepod [1]; [28]
  Weeds Per Pot: Sicklepod: 2.1
Sicklepod [1]; [29]
  Weeds Per Pot: Sicklepod: 2
Sicklepod [1]; [30]
  Weeds Per Pot: Sicklepod: 2.7
Sicklepod [1]; [31]
  Weeds Per Pot: Sicklepod: 2.4
Sicklepod [1]; [32]
  Weeds Per Pot: Sicklepod: 3.1
crabgrass; [5]
  Weeds Per Pot: Crabgrass: 4.3
crabgrass; [6]
  Weeds Per Pot: Crabgrass: 1.6
crabgrass; [7]
  Weeds Per Pot: Crabgrass: 0
crabgrass; [8]
  Weeds Per Pot: Crabgrass: 0
crabgrass; [9]
  Weeds Per Pot: Crabgrass: 0
crabgrass; [10]
  Weeds Per Pot: Crabgrass: 7.4
crabgrass; [11]
  Weeds Per Pot: Crabgrass: 2.9
crabgrass; [12]
  Weeds Per Pot: Crabgrass: 0.4
crabgrass; [13]
  Weeds Per Pot: Crabgrass: 0
crabgrass; [14]
  Weeds Per Pot: Crabgrass: 0
crabgrass; [15]
  Weeds Per Pot: Crabgrass: 7.3
crabgrass; [16]
  Weeds Per Pot: Crabgrass: 3.4
crabgrass; [17]
  Weeds Per Pot: Crabgrass: 0.6
crabgrass; [18]
  Weeds Per Pot: Crabgrass: 0
crabgrass; [19]
  Weeds Per Pot: Crabgrass: 0
crabgrass; [20]
  Weeds Per Pot: Crabgrass: 9.6
crabgrass; [21]
  Weeds Per Pot: Crabgrass: 5.6
crabgrass; [22]
  Weeds Per Pot: Crabgrass: 1.4
crabgrass; [23]
  Weeds Per Pot: Crabgrass: 0
crabgrass; [24]
  Weeds Per Pot: Crabgrass: 0
Sicklepod [2]; [10]
  Weeds Per Pot: Sicklepod: 1.3
Sicklepod [2]; [11]
  Weeds Per Pot: Sicklepod: 0.9
Sicklepod [2]; [12]
  Weeds Per Pot: Sicklepod: 0.3
Sicklepod [2]; [13]
  Weeds Per Pot: Sicklepod: 0
Sicklepod [2]; [14]
  Weeds Per Pot: Sicklepod: 0
Sicklepod [2]; [15]
  Weeds Per Pot: Sicklepod: 1.7
Sicklepod [2]; [16]
  Weeds Per Pot: Sicklepod: 0.7
Sicklepod [2]; [17]
  Weeds Per Pot: Sicklepod: 0.4
Sicklepod [2]; [18]
  Weeds Per Pot: Sicklepod: 0.3
Sicklepod [2]; [19]
  Weeds Per Pot: Sicklepod: 0
Sicklepod [2]; [20]
  Weeds Per Pot: Sicklepod: 1.6
Sicklepod [2]; [21]
  Weeds Per Pot: Sicklepod: 0.7
Sicklepod [2]; [22]
  Weeds Per Pot: Sicklepod: 0.4
Sicklepod [2]; [23]
  Weeds Per Pot: Sicklepod: 0.3
Sicklepod [2]; [24]
  Weeds Per Pot: Sicklepod: 0.1
Yellow nutsedge [3]; [10]
  Weeds Per Pot: Yellow Nutsedge: 0.9
Yellow nutsedge [3]; [11]
  Weeds Per Pot: Yellow Nutsedge: 0.4
Yellow nutsedge [3]; [12]
  Weeds Per Pot: Yellow Nutsedge: 0.1
Yellow nutsedge [3]; [13]
  Weeds Per Pot: Yellow Nutsedge: 0
Yellow nutsedge [3]; [14]
  Weeds Per Pot: Yellow Nutsedge: 0
Yellow nutsedge [3]; [15]
  Weeds Per Pot: Yellow Nutsedge: 2.4
Yellow nutsedge [3]; [16]
  Weeds Per Pot: Yellow Nutsedge: 0.6
Yellow nutsedge [3]; [17]
  Weeds Per Pot: Yellow Nutsedge: 0.6
Yellow nutsedge [3]; [18]
  Weeds Per Pot: Yellow Nutsedge: 0
Yellow nutsedge [3]; [19]
  Weeds Per Pot: Yellow Nutsedge: 0
Yellow nutsedge [3]; [20]
  Weeds Per Pot: Yellow Nutsedge: 2.9
Yellow nutsedge [3]; [21]
  Weeds Per Pot: Yellow Nutsedge: 1.7
Yellow nutsedge [3]; [22]
  Weeds Per Pot: Yellow Nutsedge: 1.0
Yellow nutsedge [3]; [23]
  Weeds Per Pot: Yellow Nutsedge: 0
Yellow nutsedge [3]; [24]
  Weeds Per Pot: Yellow Nutsedge: 0
All weeds; [25]
  Weeds Per Pot: All Weeds: 2.6
All weeds; [26]
  Weeds Per Pot: All Weeds: 0.6
All weeds; [27]
  Weeds Per Pot: All Weeds: 8.7
All weeds; [28]
  Weeds Per Pot: All Weeds: 4.6
All weeds; [29]
  Weeds Per Pot: All Weeds: 15.1
All weeds; [30]
  Weeds Per Pot: All Weeds: 9.9
All weeds; [31]
  Weeds Per Pot: All Weeds: 17
All weeds; [32]
  Weeds Per Pot: All Weeds: 13.3
Yellow nutsedge [4]; [25]
  Weeds Per Pot: Yellow Nutsedge: 1.4
Yellow nutsedge [4]; [26]
  Weeds Per Pot: Yellow Nutsedge: 0.1
Yellow nutsedge [4]; [27]
  Weeds Per Pot: Yellow Nutsedge: 3.6
Yellow nutsedge [4]; [28]
  Weeds Per Pot: Yellow Nutsedge: 2.4
Yellow nutsedge [4]; [29]
  Weeds Per Pot: Yellow Nutsedge: 4.6
Yellow nutsedge [4]; [30]
  Weeds Per Pot: Yellow Nutsedge: 3.4
Yellow nutsedge [4]; [31]
  Weeds Per Pot: Yellow Nutsedge: 6.9
Yellow nutsedge [4]; [32]
  Weeds Per Pot: Yellow Nutsedge: 6.1
